d = 2'-deoxy (DNA); r = 2'-OH (RNA)
Legend:
Assay type in all cases: cell-based, human
[1] = test system: MG63 and HOB cells; assay: Cell proliferation / toxicity by MTS assay; settings: 50 and 100 nM, 24 h post transfection
Experimental: Cell proliferation was assessed by MTS (3-(4,5-dimethylthiazol-2-yl)-5-(3-carboxymethoxyphenyl)-2-(4-sulfophenyl)-2H-tetrazolium, inner salt) reagent assay: MG63 cells were seeded at a density of 35 000 cells in 24-well culture plates, and cultured for 24 hours as mentioned above. Cells were transfected with 50 nM or 100 nM concentrations of cpRNA and negative control siRNAs with or without MATra-si, while control wells were left untreated. Each transfection experiment was performed in triplicate. Post-transfection, cells were incubated for 24 hours at 37° C. The viable cells were evaluated by MTS assay, using CellTiter 96®AQueousOne Solution Cell Proliferation Assay (Promega, USA) according to the manufacturer's protocol. The enzymatic reduction in MTS to formazan was quantified by an ELISA plate reader (Thermo Scientific) at 490 nm.
Thus, the role of siRNA topography on immune activation and cellular toxicity was investigated because increased RNA length has been reported to cause toxicity with increased interferon (IFN)-β expression. toxicity studies were performed using the MTS assay with two concentrations of GAPDH siRNA (50 and 100 nM) with different overhang lengths (dT2, dT5, and dT8) in MG63 and HOB cells and compared it with the scrambled siRNA sequence (FIG. 5).

[2] = test system: GAPDH; assay: Carrier-free GAPDH knockdown in different cell types (HOB, HCT116, MG63) by RT-PCR
Experimental: Primary human osteoblast (HOB) cells isolated from human trabecular bone and keratinocytes and fibroblasts cells were isolated from skin tissue from healthy human donors. MG63 (human osteosarcoma cell line), HCT116 (human colon cancer cell line), HEK293 (human embryonic kidney 293 cells), C2C12 (mouse myoblast cell line) and MC3T3 (mouse osteoblast precursor cell line) cell lines were obtained from American Type Culture Collection, ATCC (Manassas, Va., USA). Cells were cultured until confluence was reached. The human cell experiments were approved by the local ethics committee (Ethical approval # Ups 03-561).
At 70% confluency, a day prior to transfection, the cells were seeded at a density of 35 000 cells in a 24-well cell culture plate to achieve 60-80% confluence at the day of transfection. Cell penetrating siRNAs (cpRNAs) of different lengths were transfected at 50 nM concentrations with Magnet Assisted Transfection (MATra-si) reagent for siRNAs (IBA GmbH, Göttingen, Germany) according to the manufacturers' protocols. […]
cDNA synthesis was performed in triplicate using total RNA reverse transcribed using High Capacity cDNA reverse transcription kit (Applied Biosystems, USA), with non-template control added to ensure a lack of signal in assay background. […] Data from samples with a Ct value equal to or below 35 were further analyzed. Samples were normalized relative to endogenous control and differences in cycle number thresholds were calculated using comparative quantitation 2^−ΔΔcT method (also called the ΔΔCT method), commonly used for analyzing siRNA induced gene knockdown efficiency.
The formulas used to calculate gene knockdown were as follows: First, the ΔCT was calculated as the mean cycle threshold for the target gene minus the mean cycle thresholds for the endogenous controls ACTB, each performed in triplicates: ΔCT=CT (target gene)−CT (endogenous control). Secondly, the ΔΔCT was calculated as the ΔCT of the target minus the ΔCT of negative control (NC): ΔΔCT=ΔCT (target)−ΔCT (NC). […]

[3] = test system: MG63 cells; assay: Fluorescence / confocal microscopy of cellular distribution in MG63 cells; settings: fluorescently labelled, transfection reagent free
Experimental: Cellular uptake experiments were performed by plating cells (1×10^4) in an 8 well chamber slide. At 70% confluency, the cells were transfected with 50 nM Cy3-cpRNA and incubated at 37° C. for 24 h. Control wells were left untreated. Each transfection was performed in triplicate. […] The slides were mounted using Vectashield mounting medium containing 4′, 6-diamidino-2-phenylindole (DAPI) (Vector Labs, Burlingame, Calif.) to stain the nuclei of cells.
MG63—human osteosarcoma cells were cultured in α-MEM (Sigma-Aldrich, Haverhill, UK) medium containing 10% FBS, 1% L-Glutamine, and 1% antibiotics (PeSt) at 37° C. with 5% CO2. One day prior to the siRNA treatment, 35,000 cells were plated per each well of a 24-well plate. On the experiment day, cells were replaced with 10% heat inactivated-FBS containing α-MEM medium with 1% L-Glutamine, and 1% antibiotics (PeSt). Fluorescently (Cy3) labelled CP-siRNA and nicked CP-siRNA having GAPDH targeting sequence (final concentration: 50 nM) was given to the each well. After 24 hours the cells were washed with PBS and fixed with 4% formaldehyde for 20 mins at room temperature and then washed twice with PBS. DAPI (1 ug/ml in PBS) was added to cells for 5 mins and then washed with PBS. The cells were then visualized in Nikon TiU at 20×+1.5× and analysed with the Nikon Imaging software.

Row | Substance | cytotoxicity (MTS assay) [1] | RNAi activity in primary cells ([2]; primary cells) | cellular distribution [3] | GAPDH gene knockdown in different cell types ([2]; 50 nM) | knockdown efficiency compared to canonical siRNA ([2]; HOB, HCT116 and MG63 cells)
1 | dT2: Canonical GAPDH siRNA, sense SEQ ID NO: 1, antisense SEQ ID NO: 2, dTdT 3′-overhang on both strands (sense CCGAGCCACAUCGCUCAGATT; antisense UCUGAGCGAUGUGGCUCGGTT; sugars from the 5' end r19 d2, backbone not given here) [reference compound] | do not impose toxicity | only limited activity | localized distribution to endosome | – | –
2 | dT5: GAPDH siRNA, sense SEQ ID NO: 3 with dT5 3′-overhang, antisense SEQ ID NO: 2 with dT2 (sense CCGAGCCACAUCGCUCAGATTTTT; antisense UCUGAGCGAUGUGGCUCGGTT; sense: sugars from the 5' end r19 d5, backbone not given here; antisense: sugars from the 5' end r19 d2, backbone not given here) | do not impose toxicity | – | perinuclear localization within cytosol | 80% | 3-4 fold
